In paper PMC4287437, “Novel Inhibitors Induce Large Conformational Changes of GAB1 Pleckstrin Homology Domain and Kill Breast Cancer Cells” (PLoS Computational Biology, 2015):
Several values for one entry are separate records, joined by “and”; a condition that tells them apart may be missing. Equal entries are not always repeated.

Assays:
human GAB1 PH domain [1] = molecular target: T1, human GAB1 PH domain (Homo sapiens, UniProt Q13480); assay: SPR direct binding to GAB1 PH domain; settings: for Kd: read-out: KD GAB1; for Kd / KD GAB1: SPR, immobilized PH domain GST-fusion, NB = No Binding; for Exp. ΔGbind: GAB1, derived from experimental KD (or Ki)
T1 sequence (Q13480 5-116 limits assumed): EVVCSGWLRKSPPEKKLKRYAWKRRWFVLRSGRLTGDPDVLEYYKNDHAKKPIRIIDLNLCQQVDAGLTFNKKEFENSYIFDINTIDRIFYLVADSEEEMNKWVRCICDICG
Experimental: (§3) Binding assays were performed using a Biacore 2000 instrument with the Biacore Control Software v3.2 and BIAevaluation v4.1 analysis software (Biacore, Piscataway, NJ) as previously described [51]. Briefly, the PH domain GST-fusion proteins were immobilized on a CM5 Sensorchip (Biacore BR-1000-12) using Biacore's Amine Coupling Kit (Biacore BR-1000-50) to a level of 10,000 Response units (RUs). Small molecule analytes at concentrations ranging from one tenth to ten times the predicted K D were injected at a high flow rate (30 µL/min). Dimethylsulfoxide (DMSO) concentrations in all samples and running buffer were 1% (v/v) or less. For the competitive binding assays and K i determination, PtdIns(3,4,5)P3-biotin labeled liposomes (Echelon Biosciences, Salt Lake City, UT) and SA chips were used with increasing concentrations of the compound tested. We did triplicate SPR assays for each concentration.

phospho-Tyr627 GAB1 = assay: Inhibition of GAB1 Y627 phosphorylation in T47D cells; format: cell-based, human; settings: 20 µM, 4 hr, HGF stimulated
Experimental: For all biological assays, hit compounds were added at 20 µM concentration directly into the culture media of the cells for 4 hr following a 16 hr incubation of T47D cells without FBS. Cells were stimulated with HGF for 20 min at 50 ng/ml. Following this treatment, cells were lysed as previously published and equal amounts of total cell lysate were loaded on a pSer^312-IRS-1/Total IRS-1 Meso Scale Discovery plate as described by the manufacturer. The plate was read using a Sector Imager 2400A instrument (Meso Scale Discovery protein profiling system, Gaithersburg, MD). For the measurement of GAB1 phosphorylation, T47D cells were treated as for the phosphorylation of IRS1 evaluation. […] Each experiment was performed at least three times.

T47D = assay: Cellular proliferation (MTT) assay, T47D; format: cell-based, human; settings: for IC50: 4 days growth, MTT, IA = Inactive; for toxicity to T47D at 100 µM: data not shown
Experimental: (§1) T47D and MDA-MB-231 cells were maintained in bulk culture in Dulbecco's modified Eagle medium (DMEM) supplemented with 10% heat-inactivated fetal bovine serum (FBS), 4.5 g/L glucose, 100 U/mL penicillin and […] streptomycin in a 5% CO2 atmosphere. MCF-10A cells were maintained in MEGM with other conditions same as the cancer cell lines. […] Cells were confirmed to be mycoplasma free by testing them with an ELISA kit (Roche-Boehringer Mannheim, Indianapolis, IN). Our hit compounds were freshly prepared in DMSO at a stock concentration of 10 mM. For the evaluation of cellular proliferation, a standard 96-well micro-cytotoxicity assay was performed as described in reference. Briefly, the assay was set up by plating cells at 5,000–10,000 cells per well (depending on cell doubling time) for a growth period of 4 days. The identified hits were added directly to the media, dissolved in DMSO at various concentrations ranging from 1 to 200 µM. The endpoint was spectrophotometric determination of the reduction of 3-(4,5-dimethylthiazol-2-yl)-2,5-diphenyltetrazolium bromide. All assays were performed in triplicates.

human IRS1 PH domain = molecular target: T2, human IRS1 PH domain (Homo sapiens, UniProt P35568); assay: SPR direct binding to IRS1 PH domain; settings: for Kd: read-out: KD IRS1; for Exp. ΔGbind: IRS1, derived from experimental KD
T2 sequence (P35568 12-115 limits assumed): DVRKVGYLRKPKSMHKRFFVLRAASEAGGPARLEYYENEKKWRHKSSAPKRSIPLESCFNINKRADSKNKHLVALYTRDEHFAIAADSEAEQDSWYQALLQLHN
Experimental: as §3

MDA-MB-231 = assay: Cellular proliferation (MTT) assay, MDA-MB-231; format: cell-based, human; settings: for IC50: 4 days growth, MTT, IA = Inactive; for toxicity to MDA-MB-231 at 100 µM: data not shown
Experimental: as §1

human GAB1 PH domain [2] = molecular target: T1, human GAB1 PH domain; assay: SPR competitive binding (PtdIns(3,4,5)P3-biotin liposomes), Ki, GAB1 PH domain; settings: read-out: Ki GAB1, cells marked * (Ki measurement)
Experimental: as §3

MCF-10A = assay: Cellular proliferation assay, MCF-10A non-tumorigenic cells; format: cell-based, human; settings: data not shown
Experimental: (§2) Two human breast cancer cell lines and one normal breast cell line were used for this study: T47D ductal breast epithelial tumor cell line, MDA-MB-231 epithelial tumor cell line and MCF-10A non-tumorigenic epithelial cell line (American Type Culture Collection, Rockville, MD). T47D and MDA-MB-231 cells were maintained in bulk culture in Dulbecco's modified Eagle medium (DMEM) supplemented with 10% heat-inactivated fetal bovine serum (FBS), 4.5 g/L glucose, 100 U/mL penicillin and […] streptomycin in a 5% CO2 atmosphere. MCF-10A cells were maintained in MEGM with other conditions same as the cancer cell lines. Cells were passaged using 0.25% trypsin and 0.02% EDTA. Cells were confirmed to be mycoplasma free by testing them with an ELISA kit (Roche-Boehringer Mannheim, Indianapolis, IN). Our hit compounds were freshly prepared in DMSO at a stock concentration of 10 mM. For the evaluation of cellular proliferation, a standard 96-well micro-cytotoxicity assay was performed as described in reference. Briefly, the assay was set up by plating cells at 5,000–10,000 cells per well (depending on cell doubling time) for a growth period of 4 days. The identified hits were added directly to the media, dissolved in DMSO at various concentrations ranging from 1 to 200 µM. […]

MDA-MB-468 cell line = assay: Cellular proliferation assay, MDA-MB-468; format: cell-based; settings: cell marked ** in MDA-MB-231 column: MDA-MB-468 cell line used
Experimental: as §2

GAB2 PH domain = GAB2 PH domain (Homo sapiens, UniProt Q9UQC2); assay: Follow-up binding to GAB2 PH domain; settings: follow-up experiments
Chain of GAB2 PH domain (Q9UQC2 6-117 limits assumed): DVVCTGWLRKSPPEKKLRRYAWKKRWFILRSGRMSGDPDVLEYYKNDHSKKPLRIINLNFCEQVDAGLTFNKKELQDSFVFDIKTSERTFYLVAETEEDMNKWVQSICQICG

[3] = SPR, immobilized PH domain GST-fusion, NB = No Binding

Row | Kd (human GAB1 PH domain [1]) | IC50 (T47D) | Kd (human IRS1 PH domain; [3]) | IC50 (MDA-MB-231) | Compound | % pGAB1 inhibition (phospho-Tyr627 GAB1) | also measured
1 |  | 23.7 ± 2.7 µM | > 50 µM | 40.3 ± 1.3 µM | O=S(=O)(NCc1csc2ccc(Cl)cc12)c1cc(S(=O)(=O)c2ccccc2)cs1 [GAB-001] | 55% | KD IRS1 (human IRS1 PH domain; [3]): not to IRS1 PH domain; Exp. ΔGbind (human GAB1 PH domain [1]): -6.91 kcal/mol; Ki (human GAB1 PH domain [2]): 9.4 µM and 9.38 µM
2 | 2.1 ± 0.1 µM | 138 ± 6.9 µM | 16.4 ± 4.3 µM | 143 ± 11.6 µM | Cn1cnc(S(=O)(=O)Nc2ccccc2SCCS(=O)(=O)c2ccc(Cl)cc2)c1 [GAB-002] | 32% | 
3 | 2.2 ± 1.1 µM | 19.4 ± 2.9 µM | > 50 µM | 66.6 ± 4.6 µM | O=c1[nH]nc(SCc2csc(-c3ccccc3)n2)n1Cc1ccco1 [GAB-004] | 81% | Exp. ΔGbind (human GAB1 PH domain [1]): -7.78 kcal/mol
4 | > 50 µM | > 200 µM | > 50 µM | > 200 µM | CS(=O)(=NS(=O)(=O)c1ccc(-c2ccccn2)s1)c1ccc(Cl)cc1 (stereo not shown) [GAB-005] | 6% | 
5 | > 50 µM | 101 ± 1.8 µM | > 50 µM |  | Cc1cc2ncc(-c3cnc(SCCS(=O)(=O)c4ccc(Cl)cc4)nc3)c(C)n2n1 [GAB-006] | 16% | 
6 | 42.3 ± 8.9 µM | 20.1 ± 4.3 µM | 1.6 ± 0.2 µM | 4.6 ± 0.7 µM | CS(=O)(=O)CCSc1ncccc1C(=O)Sc1ccc(Cl)cc1Cl [GAB-007] | 53% | Exp. ΔGbind (human IRS1 PH domain): -7.93 kcal/mol; Exp. ΔGbind (human GAB1 PH domain [1]): -6.01 kcal/mol
7 | > 50 µM | 43.2 ± 3.2 µM | 16.2 ± 1.7 µM | > 200 µM | O=S(=O)(NCc1csc(-c2cccs2)n1)c1ccc(N2CCOCC2)nc1 [GAB-008] | 8% | 
8 | > 50 µM | 97.6 ± 6.1 µM | > 50 µM | 163 ± 6 µM | Cc1noc(C)c1NC(=O)NCc1csc(-c2cccs2)n1 [GAB-009] | 38% | 
9 | > 50 µM | 23.8 ± 4.2 µM | 0.12 ± 0.02 µM | 66 ± 4.4 µM | Cc1onc(-c2ccccc2)c1-c1nc(CSc2nc3ccccc3[nH]2)no1 [GAB-010] | 92% | Exp. ΔGbind (human IRS1 PH domain): -9.51 kcal/mol
10 | > 50 µM | > 200 µM | > 50 µM | > 200 µM | Cn1c(Cc2ccsc2)nnc1SCC(=O)Nc1cc(Cl)cc(Cl)c1 [GAB-011] | 24% | 
11 | > 50 µM | 119 ± 3.6 µM | > 50 µM | > 200 µM | O=C(O)c1ccccc1C(=O)Nc1ccccc1SCCS(=O)(=O)c1ccc(Cl)cc1 [GAB-012] | 43% | killing of T47D cells at 50 µM (T47D): did not effectively kill; toxicity to T47D at 100 µM (T47D): not for T47D and MDA-MB-231; killing of MDA-MB-231 cells at 50 µM (MDA-MB-231): did not effectively kill; toxicity to MDA-MB-231 at 100 µM (MDA-MB-231): not for T47D and MDA-MB-231; toxicity to MCF-10A at 100 µM (MCF-10A): toxic
12 | > 50 µM | > 200 µM | > 50 µM | > 200 µM | COc1cc(NS(=O)(=O)c2ccc(NS(=O)(=O)c3c(C)noc3C)cc2)nc(OC)n1 [GAB-013] | 27% | killing of T47D cells at 50 µM (T47D): did not effectively kill; toxicity to T47D at 100 µM (T47D): not for T47D and MDA-MB-231; killing of MDA-MB-231 cells at 50 µM (MDA-MB-231): did not effectively kill; toxicity to MDA-MB-231 at 100 µM (MDA-MB-231): not for T47D and MDA-MB-231; toxicity to MCF-10A at 100 µM (MCF-10A): toxic
13 | > 50 µM | 178 ± 3.9 µM | > 50 µM |  | Cc1nnc(NS(=O)(=O)c2ccc(NS(=O)(=O)c3ccc4ccccc4c3)cc2)s1 [GAB-014] | 42% | IC50 (MDA-MB-468 cell line): 69.9 ± 0.1 µM
14 |  | 125 ± 5.4 µM | 0.05 µM |  | CCCCCCCCCCCCc1ccc(S(=O)(=O)Nc2nnc(CC(=O)O)s2)cc1 [GAB-015] | 77% | Ki (human GAB1 PH domain [2]): 13.1 ± 1.5 µM
15 | 0.9 ± 0.1 µM |  | 0.15 µM |  | CCCCCCCCCCCCc1ccc(S(=O)(=O)Nc2nnc(CC(=O)OCC)s2)cc1 [GAB-016] |  | targeting of GAB2 PH domain (GAB2 PH domain): targets GAB2 PH domain as well; Exp. ΔGbind (human IRS1 PH domain): -9.38 kcal/mol; Exp. ΔGbind (human GAB1 PH domain [1]): -8.31 kcal/mol; KD GAB1 (human GAB1 PH domain [1]): nanomolar binding affinity
16 | 0.68 ± 0.03 µM |  | 0.05 µM |  | CCCCCCCCCCCCc1ccc(S(=O)(=O)Nc2nnc(C(=O)OCC)s2)cc1 [GAB-017] |  | Exp. ΔGbind (human GAB1 PH domain [1]): -8.47 kcal/mol; KD GAB1 (human GAB1 PH domain [1]): nanomolar binding affinity
17 |  | 185 ± 2.5 µM | > 50 µM |  | CCCCCCCCCCCCc1ccc(S(=O)(=O)Nc2nnc(S(N)(=O)=O)s2)cc1 [GAB-018] | 71% | killing of T47D cells at 50 µM (T47D): did not effectively kill; killing of MDA-MB-231 cells at 50 µM (MDA-MB-231): did not effectively kill; Ki (human GAB1 PH domain [2]): 36.6 ± 5 µM
18 |  | 39.4 ± 6.2 µM |  |  | CCc1ccc(C(=O)OC)cc1CSc1nnc(-c2ccc(C(F)(F)F)cc2)n1Cc1ccoc1 [GAB-019] | 91% | 
19 | 1.33 µM |  |  |  | CCCCCCCCCCCCc1ccc(S(=O)(=O)Nc2nncs2)cc1 [GAB-020] | 87% | 

Row | Compound | Kd (human GAB1 PH domain [1]) | IC50 (T47D) | Kd (human IRS1 PH domain; [3]) | IC50 (MDA-MB-231) | % pGAB1 inhibition (phospho-Tyr627 GAB1) | also measured
20 | CCCCCCCCCCCCCCCCCCOC[C@H](COP(=O)(O)OC1C(O)[C@@H](O)C(O)C[C@H]1O)OC (stereo partly shown) [DPIEL, reference compound] | 2.8 µM |  |  |  | 72% | 
